Like-named read-outs stand apart in the source and are kept apart here. Values belong to the molecule of their own block, whether it stands above or below them.
Assays:
[1] = tested on: IL-6/STAT3 signaling pathway; set-up: method as in PMID 22855270; details: previously reported value; read-out: IC50 against STAT3 signaling; cited from earlier work
[2] = tested on: human HCC cell lines (Huh-7, Li-7, SK-HEP-1, HepG3B, and HepG2); experiment: MTT cell viability assay, panel of human HCC cell lines; assay type: cell-based; details: five HCC cell lines, 72 h, read-out: IC50 range over tested HCC cells
Experimental: (§1) Human hepatocellular carcinoma Hep3B and HepG2 were obtained from the American Type Culture Collection. Human hepatocellular carcinoma Huh-7, Li-7 and SK-HEP-1 cells were kindly provided by Stem Cell Bank, Chinese Academy of Sciences. HepG2/STAT3 cells were cultured in α-MEM (Life Technologies, USA) with 10% FCS (Life Technologies, USA) and the rest cell lines were cultured in DMEM (Life Technologies) with 10% FCS (Life Technologies, USA).
(§2) The cell growth inhibitory activities on human hepatocellular carcinoma cells were examined by the MTT (3-(4,5-dimethylthiazol–2-yl)-2,5-diphenyl tetrazolium bromide). About 3.5 × 10^4 cells per well were seeded into 96-well plates for 24 h. HepG2/STAT3 cells were then treated with vehicle control (DMSO) or 2-ethoxystypandrone (1) at indicated concentrations (0.016, 0.08, 0.4, 2, 10, 50, 100 μM) for 6.5 h. HCC Huh-7, Li-7, SK-HEP-1, HepG3B, and HepG2 cells were treated with 2-ethoxystypandrone (1) at indicated concentrations for 72 h. The assay was carried out by adding a MTT solution (20 μL, 5 mg/mL; Sigma Chemical Co.) to each well and incubating for 3 h at 37 °C to form MTT-formazan crystals by metabolically viable cells. The supernatant was aspirated, and the MTT-formazan crystals were dissolved in DMSO (150 μL). The absorbance was measured by a microplate reader (BioTek Instruments, USA) at a wavelength of 492/620 nm.

Li-7 cells = experiment: MTT cell viability assay, Li-7; assay type: cell-based; details: Homo sapiens, Li-7, 72 h, read-out: IC50, cell growth/viability
Experimental: as §1, §2

HepG3B cells = experiment: MTT cell viability assay, HepG3B; assay type: cell-based; details: Homo sapiens, 72 h, read-out: IC50, cell growth/viability
Experimental: as §1, §2

[3] = tested on: HCC CSCs isolated from HCC Huh-7 cells; experiment: Tumorsphere formation assay; assay type: cell-based, human; details: 72 h
Experimental: (§3) HCC cancer stem cells were isolated from HCC Huh-7 cell line by serum-free cancer stem cell culture selection. The Huh-7 cells were collected and washed to remove serum, then suspended and plated in cancer stem cell conditioned culture medium (CSC medium) supplemented with 100 IU/ML pennicillin and 100 μg/ml streptomycin. CSC medium used for sustaining cancer stemness was serum-free DMEM/F12 containing 10 ng/ml basic fibroblast growth factor (bFGF), 20 ng/ml epidermal growth factor (EGF), 4 μg/ml heparin, 100 μg/ml apotransferrin, 25 μg/ml insulin, 9.6 μg/ml putrescin, 20 nM progesterone, 30 nM sodium selenite anhydrous, and 4 mg/ml bovine serum albumin. […]
To propagate the tumorspheres in vitro, spheres were collected by gentle centrifugation, dissociated with 0.005% trypsin-EDTA for 2 min, then added CSC medium and mechanically dissociated with a pipette to single cells. […] The dissociated single sphere-forming cells were diluted to a density of 1000 cells/ml, Then, the 1ml/well diluted cell suspension was plated to ultra-low attachment 12 wells plate and treated with indicated concentrations (0, 0.5, 1, 2, 3, 5, 8 and 10 μM) of compound 2-ethoxystypandrone for 72 h, the tumorspheres were photographed under an inverted microscope (Leica DMi8, Germany) and the tumorspheres larger than 50 μm in diameter were counted using ImageJ 1.45.

Huh-7 cells [4] = experiment: MTT cell viability assay, Huh-7; assay type: cell-based; details: Homo sapiens, Huh-7, 72 h, read-out: IC50, cell growth/viability
Experimental: as §1, §2

[5] = tested on: IL-6/STAT3 signaling pathway; experiment: STAT3-dependent luciferase reporter assay; assay type: cell-based, human; details: for IC50: HepG2/STAT3 luciferase cells, compound 1 h then IL-6 10 ng/mL 5.5 h
Source text: HepG2/STAT3 cells, a gift of Prof. Xinyuan Fu (National University of Singapore, Singapore), were the human hepatocellular carcinoma HepG2 cells stably transfected with a STAT3-responsive firefly luciferase reporter plasmid. Briefly, three tandem repeats of the oligonucleotide […], which contains the DNA binding sequence of STAT3, was artificially synthesized and introduced into the luciferase reporter vector pGL2-P plasmid (Promega). The pGL2-P/STAT3 construct was confirmed by sequencing. The luciferase reporter plasmid pGL2-P/STAT3 was used to transfect HepG2 cells using Lipofectamine 2000 (Invitrogen). The stably transfected HepG2 cell line with the pGL2-P/STAT3 plasmid was obtained by screening for G418-resistant cell clones.
The inhibitory activities on IL-6/STAT3 signaling were determined by STAT3-dependent luciferase reporter assay described in our previously report. HepG2/STAT3 cells were HepG2 cells stably transfected with a STAT3-responsive firefly luciferase reporter plasmid. The expression level of luciferase reached its peak value after 5–6 h stimulation by interleukin (IL)-6. HepG2/STAT3 cells (2 × 10^4 per well) were seeded into 96-well cell culture microplates (Corning) and allowed to grow for 48 h and then treated with compounds 1–8 (0, 0.00001, 0.0001, 0.001, 0.01, 0.1, 1, 4, 20 μM) for 1 h followed by stimulation with 10 ng/mL interleukin (IL)-6 (BD Biosciences) for 5.5 h (cells were treated with compounds 1–8 for 6.5h). Luciferase activities were measured with the Promega luciferase kit (# E4550) according to the manufacturer’s instruction. All luciferase assay experiments were carried out at least thrice in triplicate to minimize the difference caused by cell number. The JAK2/STAT3 inhibitor pyridone 6 (Merck Chemical) was used as a positive control.

Huh-7 cells [6] = experiment: Annexin V/PI flow cytometry apoptosis, Huh-7; assay type: cell-based, human; details: Huh-7, 8 μM, 24 h
Experimental: Huh-7 cells were grown to 70–80% confluence and then treated with various concentrations (0, 2, 4, and 8 μM) of 2-ethoxystypandrone (1) for 24 h. The cells were harvested and […]. The cells were then treated with FITC Annexin V apoptosis detection kit I (BD Biosciences Pharmingen) according to the manufacturer’s protocol and the samples were immediately then analyzed by flow cytometry (BD Canto II, USA). The percentage of cells undergoing apoptosis was calculated with CELLQuest 3.0 software. The dots in the lower left quadrant, upper left quadrant, upper right quadrant, and lower right quadrant represent the viable cells, the damages cells, the cells in late apoptosis and the cells in early apoptosis, respectively.

[7] = tested on: HepG2/STAT3-luciferase cells; experiment: MTT cell viability assay, HepG2/STAT3-luciferase cells 6.5 h; assay type: cell-based, human; details: 0.016-100 μM
Experimental: as §2

SK-HEP-1 cells = experiment: MTT cell viability assay, SK-HEP-1; assay type: cell-based; details: Homo sapiens, SK-HEP1, SK-HEP-1, 72 h, read-out: IC50, cell growth/viability
Experimental: as §1, §2

HepG2 cells = experiment: MTT cell viability assay, HepG2; assay type: cell-based; details: Homo sapiens, HepG2, 72 h, read-out: IC50, cell growth/viability
Experimental: as §1, §2

[8] = tested on: STAT3 tyrosine phosphorylation (Tyrosine 705) in HepG2/STAT3 cells; experiment: Western blot, IL-6-induced STAT3 tyrosine phosphorylation; assay type: cell-based, human; details: 2 h pretreatment 2-100 μM, IL-6 15 min
Experimental: Expression of STAT3 and p-STAT3 proteins was analyzed by Western Blot analysis described in previous report. HepG2/STAT3 cells or HepG2 cells were grown to 70–80% confluency and then pre-treated with 2-ethoxystypandrone (1) at different concentrations (0, 2, 10, 50,100 μM) for 2 h. The cells were stimulated with IL-6 for 15 min (the phosphorylation of STAT3 appeared in the 15 min) and then lysed in Laemmli sample buffer and boiled for 5 min. Proteins were then separated by 8% SDS-PAGE and transferred to nitrocellulose membranes. Membranes were blocked in TBS containing 5% nonfat milk 0.1% and Tween 20 (TBST) for 1 h at room temperature and then incubated for 2 h in TBST containing primary antibodies and 5% bovine serum albumin. After being washed with TBST, membranes were then incubated with horseradish peroxidase-conjugated goat anti-mouse IgG (H + L) secondary antibody (#GAM007, MultiSciences) for 1 h, and finally immune complexes were detected by enhanced chemiluminescence. Primary antibodies used in Western blot were mouse anti-STAT3 (#9139,CST), mouse anti-pY-STAT3 (Tyrosine 705, #9138, CST), and mouse anti-α-tubulin (#sc5286, Santa Cruz).

HCC CSCs [9] = experiment: Annexin V flow cytometry apoptosis, HCC CSCs; assay type: cell-based, human
Experimental: as §3
For analysis the apoptosis of HCC CSCs, the suspended tumorspheres were harvested and dissociated mechanically into single cells with 0.005% trypsin-EDTA for 2 min and the dissociated cells were re-seeded with CSC medium and treated with indicated concentrations (0, 5, 8, and 10 μM) of 2-ethoxystypandrone (1) for 24 h. The cells were harvested and then treated with FITC Annexin V apoptosis detection kit I (BD Biosciences Pharmingen, USA) according to the manufacturer’s protocol respectively and the samples were immediately then analyzed by flow cytometry (BD Canto II, USA). […]

HCC CSCs [10] = experiment: PI flow cytometry cell cycle distribution, HCC CSCs; assay type: cell-based, human; details: 10 μM, 24 h
Experimental: HCC cancer stem cells were isolated from HCC Huh-7 cell line by serum-free cancer stem cell culture selection. The Huh-7 cells were collected and washed to remove serum, then suspended and plated in cancer stem cell conditioned culture medium (CSC medium) supplemented with 100 IU/ML pennicillin and 100 μg/ml streptomycin. CSC medium used for sustaining cancer stemness was serum-free DMEM/F12 containing 10 ng/ml basic fibroblast growth factor (bFGF), 20 ng/ml epidermal growth factor (EGF), 4 μg/ml heparin, 100 μg/ml apotransferrin, 25 μg/ml insulin, 9.6 μg/ml putrescin, 20 nM progesterone, 30 nM sodium selenite anhydrous, and 4 mg/ml bovine serum albumin. The Huh-7 cells were subsequently cultured in ultra-low attachment 6-well plates at a density of 5000 cells/well, half volume of the flesh medium was exchanged every second day. After 10–14 days of culture, the most Huh-7 cells died and the cells grew up as nonadherent, three-dimensional sphere clusters.
For analysis the apoptosis of HCC CSCs, the suspended tumorspheres were harvested and dissociated mechanically into single cells with 0.005% trypsin-EDTA for 2 min and the dissociated cells were re-seeded with CSC medium and treated with indicated concentrations (0, 5, 8, and 10 μM) of 2-ethoxystypandrone (1) for 24 h. The cells were harvested and then treated with FITC Annexin V apoptosis detection kit I (BD Biosciences Pharmingen, USA) according to the manufacturer’s protocol respectively and the samples were immediately then analyzed by flow cytometry (BD Canto II, USA). […] After washing the cells with pre-cooled PBS twice, the cells were then treated with Propidium iodide (PI)/RNase Staining Buffer (BD Biosciences Pharmingen, USA) according to the manufacturer’s protocol respectively and the samples were immediately then analyzed by flow cytometry (BD Canto II,USA).

SMILES: COC1=CC(=O)c2c(cc(C)c(C(C)=O)c2O)C1=O [2-methoxystypandrone, 2-methoxy-6-acetyl-7-methyl-juglone]
IC50 [1]: 17.2 ± 0.21 µM

SMILES: CCOC1=CC(=O)c2c(cc(C)c(C(C)=O)c2O)C1=O [compound 1, 2-ethoxy-6-acetyl-7-methyl-juglone]
IC50 [2]: 3.69 to 20.4 µM
IC50 (Li-7 cells): 5.58 ± 0.89 µM
IC50 (HepG3B cells): 16.7 ± 0.58 µM
self-renewal and tumorsphere formation vs control ([3]; 2 μM): significantly blocked self-renewal and the tumorsphere formation
IC50 ([3]; Homo sapiens, Huh-7, HCC CSCs, spheres larger than 50 μm counted): 2.7 ± 0.28 µM
IC50 (Huh-7 cells [4]): 3.69 ± 0.51 µM
IC50 ([5]; Homo sapiens): 7.75 ± 0.18 µM
increased potency against STAT3 signaling compared with 2-methoxystypandrone ([5]; ratio of IC50 values): 2 fold
total apoptosis (Huh-7 cells [6]): 88.6 ± 1.4%
cell viability [7]: not completely dead
IC50 (SK-HEP-1 cells): 8.78 µM
IC50 (HepG2 cells): 20.4 ± 2.9 µM
IL-6-induced STAT3 tyrosine phosphorylation [8]: inhibit the IL-6-induced STAT3 tyrosine phosphorylation in a dose-dependent manner
percentage of apoptotic cells (HCC CSCs [9]; 10 μM, 24 h): 41.2 ± 4.3%
early apoptotic cells (HCC CSCs [9]; 24 h (text; 10 μM per Fig. 5a)): 38.2 ± 4.2%
cells in G0/G1 (HCC CSCs [10]): 37.53 ± 1.32%
cells in G2/M phase (HCC CSCs [10]): 18.5 ± 0.36%
cells in S phase (HCC CSCs [10]): 43.96 ± 1.07%

SMILES: O=C1COc2cc(O)cc(O)c21 [compound 3, 4,6-dihydroxybenzofuran-3-one]
IC50 ([5]; Homo sapiens): > 100 µM

SMILES: CC(C)(C)c1nc2c3cc[nH]c(=O)c3c3cc(F)ccc3c2[nH]1 [pyridone 6, reference compound]
IC50 [5]: 0.02 ± 0.001 µM

The remaining lines, values ahead:

IC50 ([5]; Homo sapiens): > 100 µM
SMILES: O=C(OC1C(Oc2cc(O)cc(C=Cc3ccc(O)cc3)c2)OC(CO)C(O)C1O)c1cc(O)c(O)c(O)c1 (stereo not drawn) [compound 5, polydatin-2′-O-gallate]

IC50 ([5]; Homo sapiens): > 100 µM
SMILES: OC[C@H]1O[C@@H](Oc2cc(O)cc(/C=C/c3ccc(O)cc3)c2)[C@H](O)[C@@H](O)[C@@H]1O [compound 6, polydatin]

IC50 ([5]; Homo sapiens): > 100 µM
SMILES: O=C(OC1Cc2c(O)cc(O)cc2OC1c1ccc(O)c(O)c1)c1cc(O)c(O)c(O)c1 (stereo not drawn) [compound 7, catechin-3-O-gallate]

From paper PMC6359800, “2-Ethoxystypandrone, a novel small-molecule STAT3 signaling inhibitor from Polygonum cuspidatum, inhibits cell growth and induces apoptosis of HCC cells and HCC Cancer stem cells” (BMC Complementary and Alternative Medicine, 2019)
